Where a name gives a salt, the structure may show the parent alone. Read-outs that look alike come from different tables or passages of the source.
Experiments:
Type in all cases: in vivo, Danio rerio
[1] = system: 3-dpf Zebrafish Embryos Challenged with LPS (P. aeruginosa 60 μg/mL); settings: for Percent Rescue (Mort + Tail Edema): 3-dpf embryos, n=16; for Percent Rescue (Mort + Tail Edema) / rescue of tail edema and mortality (sepsis rescue rate) at 3-dpf / 3 dpf Embryos Percent Rescue (Mort + Tail Edema): compound 10 μM; for 3 dpf Embryos Percent Rescue (Mort + Tail Edema): initial 3-dpf screen shown for reference
Method: Healthy, normally developing embryos collected from the adult AB zebrafish spawning events were treated with 75 μM of 1-phenyl 2-thiourea (PTU) in EM prior to 24 hours post fertilization (hpf) to block pigmentation formation (Karlsson et al, 2001). These embryos were then placed into an incubator at 28.5° C. until they reached 3-dpf. Embryos were then removed from the incubator and plated individually into the wells of 96 well plates containing 50 μL of EM.
A super stock of 120 μg/mL of P. aeruginosa LPS was made up in EM in a glass container. This stock was then used to make sub stocks of 120 μg/mL P. aeruginosa LPS (positive control) and 120 μg/mL P. aeruginosa LPS containing 20 μM of test drug in glass scintillation vials. Immediately after the sub stocks were made, the wells were dosed with either 50 μL of 120 μg/mL of P. aeruginosa, 120 μg/mL of P. aeruginosa with 20 μM of test drug, or EM (1:1 Dilution). Each 96 well plate had one LPS positive control (n=16), 4 different test drugs with P. aeruginosa LPS (n=16 per drug), and one negative control (n=16). Once the plates were dosed, they were covered with parafilm and placed into an incubator at 28.5° C. The plates were removed at 6- and 24-hours post exposure to be scored for tail edema and mortality. All 644 drugs evaluated for rescue from mortality and tail edema induced by P. aeruginosa LPS exposure as compared to LPS-treated controls after 24 hours of exposure.
3-dpf embryos were challenged with 60 μg/mL P. aeruginosa LPS in combination with single 10 μM concentration of each compound for 24 hours (n=16 fish per compound). […] Other 29 compounds exceeded 60% rescue of tail edema and mortality at 24 hours post exposure.

[2] = system: 5-dpf zebrafish larvae challenged with P. aeruginosa LPS 60 μg/mL; settings: compound 10 μM; for 5 dpf Embryos Percent Rescue (Mort + Tail Edema): 5-dpf larvae
Source text: Confirmatory testing followed the same methods as the initial testing but used 5-dpf larvae instead of the 3-dpf larvae that were used for the initial screening because they were easier to handle and replicated the methods of Philip et al. (2017).
Next, follow-on 5-dpf screening was implemented to confirm initial screening with more larvae. Zebrafish swim faster at 5-dpf (requiring more time to load 96 plates), and all major organ systems are functioning at 5-dpf and thus determined as advantageous for follow-on confirmation.

[3] = system: zebrafish (4 dpf pre-treated, LPS exposure at 5-dpf) challenged with P. aeruginosa LPS 60 μg/mL; settings: number of n = 16 fish
Method: Drugs identified with >80% rescue were subjected to additional testing. Drug pretreatment for 24 hours prior to LPS challenge was evaluated to determine if any prophylactic benefit could be realized with any of the top rescue drugs. The intent was to determine if drug pre-treatment might be used at the point of injury as a preventative therapeutic before the onset of infection and development of sepsis. Parallel groups of fish received a 24-hour drug pre-treatment or no drug pre-treatment prior to LPS challenge. For this test, 4 dpf PTU-treated zebrafish embryos were placed into 96 well plates containing 100 μL of EM. […] All plates were covered with parafilm and placed into an incubator at 28.5° C. for 24 hours. […] Once the plates were dosed, they were covered with parafilm and placed into an incubator at 28.5° C. The plates were removed at 6- and 24-hours post exposure and scored for tail edema and mortality. Once the 24-hour tail edema and mortality endpoints were collected, a neurobehavioral test was conducted as described in section 2.8.

[4] = P. aeruginosa LPS 60 μg/mL, 24 hours
[5] = 3-dpf, P. aeruginosa LPS 60 μg/mL, 24 hours
[6] = P. aeruginosa LPS 60 μg/mL, 24 hours, hydrochloride
[7] = 3-dpf, P. aeruginosa LPS 60 μg/mL, 24 hours, hydrochloride
[8] = 24-hour 10 μM drug pre-treatment

Row | Compound | Percent Rescue (Mort + Tail Edema) [1, 4] | 3 dpf Embryos Percent Rescue (Mort + Tail Edema) ([1]; P. aeruginosa LPS 60 μg/mL) | 5 dpf Embryos Percent Rescue (Mort + Tail Edema) [2] | other results
1 | CN(C)[C@@H](CCOc1cccc2ccccc12)c1ccccc1 [Compound 156, Dapoxetine (hydrochloride)] | 100% | 100% | 38% | rescue of tail edema and mortality (sepsis rescue rate) at 3-dpf [1, 5]: 100%; rescue of tail edema and mortality (sepsis rescue rate) at 5-dpf [2]: 38%
2 | Almotriptan (malate) [Compound 6] | 63% | 63% | 63% | 
3 | O=C(Nc1nc(-c2cc(Cl)cs2)c(N2CCN(C3CCCCC3)CC2)s1)c1cnc(N2CCC(C(=O)O)CC2)c(Cl)c1 [Compound 3, Avatrombopag (hydrochloride)] |  |  |  | Percent Rescue (Mort + Tail Edema) [1, 6]: 56%
4 | Clc1ccc(CCCOCCCN2CCCCC2)cc1 [Compound 589, Pitolisant hydrochloride] |  |  |  | Percent Rescue (Mort + Tail Edema) [1, 6]: 56%; rescue of tail edema and mortality (sepsis rescue rate) at 3-dpf [1, 7]: 56%
5 | CC(C)(C)c1ccc(C(O)CCCN2CCC(C(O)(c3ccccc3)c3ccccc3)CC2)cc1 (stereo not drawn) [Compound 44, Terfenadine] | 75% | 75% | 0% | pericardial edema observation ([1]; 3-dpf, 24 hours): had pericardial edemas; mortality (survival) in 3-dpf initial screen [1, 5]: alive at 24 hours
6 | Nc1ccc(S(=O)(=O)c2ccc(N)cc2)cc1 [Compound 155, Dapsone] | 69% | 69% | 25% | 
7 | CN(C)CCOC(C)(c1ccccc1)c1ccc(Cl)cc1 (stereo not drawn) [Compound 157, Chlorphenoxamine] | 50% |  |  | 
8 | Cc1nc2n(c(=O)c1CCN1CCC(c3noc4cc(F)ccc34)CC1)CCCC2 [Compound 4, Risperidone] |  |  |  | rescue of tail edema and mortality (sepsis rescue rate) at 3-dpf [1, 5]: 6%
9 | Bedaquiline fumarate [Compound 474] | 94% | 94% | 0% | 
10 | CCN(CC)CCNC(=O)c1c(C)[nH]c(/C=C2\C(=O)Nc3ccc(F)cc32)c1C [Compound 621, Sunitinib Malate] | 94% | 94% | 100% | rescue of tail edema and mortality (sepsis rescue rate) at 3-dpf [1, 5]: 88%; rescue of tail edema and mortality (sepsis rescue rate) at 5-dpf [2]: 100%
11 | CN[C@H]1CC[C@@H](c2ccc(Cl)c(Cl)c2)c2ccccc21 [Compound 37, Sertraline (hydrochloride)] | 88% | 88% | 31% | 
12 | Clc1ccc(CCCOCCCN2CCCCC2)cc1 [Compound 126, Pitolisant hydrochloride] |  |  |  | rescue of tail edema and mortality (sepsis rescue rate) at 3-dpf [1, 7]: 38%
13 | O=C(O)c1cc2ccccc2c(Cc2c(O)c(C(=O)O)cc3ccccc23)c1O.OCCOCCN1CCN(C(c2ccccc2)c2ccc(Cl)cc2)CC1 [Compound 207, Hydroxyzine (pamoate)] | 50% |  |  | 
14 | Alverine (citrate) [Compound 138] | 69% | 69% | 38% | 
15 | COc1cc2ncnc(Nc3ccc(F)c(Cl)c3)c2cc1OCCCN1CCOCC1 [Compound 516, Gefitinib (ZD1839)] | 50% |  |  | 
16 | CCN(CC)CCNC(=O)c1c(C)[nH]c(/C=C2\C(=O)Nc3ccc(F)cc32)c1C.O=C(O)C[C@H](O)C(=O)O [Sunitnib (malate)] |  |  |  | 24 hour Tail Edema, No-Drug Pretreatment ([3]; 10 μM drug with LPS 60 μg/mL, no 24-hour pre-treatment): 4 fish; 24 Hour Mortality and Tail Edema, Drug Pretreatment [3, 8]: 2 fish; 24 Hour Mortality, Drug Pretreatment [3, 8]: 1 fish; 24 hour Tail Edema, Drug Pretreatment ([3]; 24-hour 10 μM drug pre-treatment before LPS 60 μg/mL): 1 fish; 24 Hour Mortality and Tail Edema, No-Drug Pretreatment ([3]; no 24-hour pre-treatment): 5 fish; 24 Hour Mortality, No Drug Pretreatment ([3]; no 24-hour pre-treatment): 1 fish
17 | CC(C)(C(=O)O)c1ccc(C(O)CCCN2CCC(C(O)(c3ccccc3)c3ccccc3)CC2)cc1 (stereo not drawn) [Compound 137, Fexofenadine] |  |  |  | rescue of tail edema in 3-dpf initial screen ([1]; 3-dpf, P. aeruginosa LPS 60 μg/mL): did not rescue tail edema; mortality (survival) in 3-dpf initial screen [1, 5]: did rescue mortality

Row | Compound | Percent Rescue (Mort + Tail Edema) [1, 4] | 3 dpf Embryos Percent Rescue (Mort + Tail Edema) ([1]; P. aeruginosa LPS 60 μg/mL) | 5 dpf Embryos Percent Rescue (Mort + Tail Edema) [2] | other results
18 | Cc1cc(Nc2ncc(Cl)c(Nc3ccccc3S(=O)(=O)C(C)C)n2)c(OC(C)C)cc1C1CCNCC1 [Compound 378, Ceritinib dihydrochloride] | 75% | 75% | 38% | 
19 | CCN(CC)CC(=O)Nc1c(C)cccc1C [Compound 549, Lidocaine hydrochloride] | 56% |  |  | 
20 | Cc1nc2n(c(=O)c1CCN1CCC(c3noc4cc(F)ccc34)CC1)CCCC2O (stereo not drawn) [Compound 61, Paliperidone] |  |  |  | rescue of tail edema and mortality (sepsis rescue rate) at 3-dpf [1, 5]: 6%
21 | Lumateperone (tosylate) [Compound 30] | 75% | 75% | 19% | 
22 | CNCCc1ccccn1 [Compound 310, Betahistine] | 56% |  |  | 
23 | CNCC[C@H](Oc1cccc2ccccc12)c1cccs1 [Compound 386, Duloxetine (hydrochloride)] | 50% |  |  | 
24 | N[C@@H]1C[C@H]1c1ccccc1.N[C@@H]1C[C@H]1c1ccccc1.O=S(=O)(O)O [Compound 7, Tranylcypromine (hemisulfate)] | 88% | 88% | 56% | 
25 | Gabexate (mesylate) [Compound 8] | 88% | 88% | 31% | 
26 | CNS(=O)(=O)CCc1ccc2[nH]cc(C3CCN(C)CC3)c2c1 [Compound 438, Naratriptan (hydrochloride)] | 50% |  |  | 
27 | C[C@H]1N=C(N(C)C)N=C(N)N1 [Compound 317, Imeglimin (hydrochloride)] | 50% |  |  | 
28 | CC(C)NCC(O)COc1cccc2[nH]ccc12 (stereo not drawn) [Compound 12, Pindolol] | 56% |  |  | 
29 | O=C(Nc1nc(-c2cc(Cl)cs2)c(N2CCN(C3CCCCC3)CC2)s1)c1cnc(N2CCC(C(=O)O)CC2)c(Cl)c1 [Compound 31, Avatrombopag] | 75% | 75% | 31% | 
30 | CC(C)(C)c1cc(NC(=O)Nc2ccc(-c3cn4c(n3)sc3cc(OCCN5CCOCC5)ccc34)cc2)no1 [Compound 598, Quizartinib (AC220)] | 56% |  |  | 
31 | CN1CCc2c(c3ccccc3n2Cc2ccccc2)C1 [Compound 318, Mebhydrolin] | 56% |  |  | 
32 | C[C@H](N)[C@H](O)c1ccc(O)c(O)c1 [Compound 10, Levonordefrin] | 63% | 63% | 75% | 
33 | CCN(CC)CCNC(=O)c1c(C)[nH]c(/C=C2\C(=O)Nc3ccc(F)cc32)c1C [Compound 354, Sunitinib (Malate)] | 88% | 88% | 100% | rescue of tail edema and mortality (sepsis rescue rate) at 3-dpf [1, 5]: 88%; rescue of tail edema and mortality (sepsis rescue rate) at 5-dpf [2]: 100%
